Series [1] concerns Hepatitis C virus. Put plainly: Antiviral activity against HCV genotype 2a infected in Huh7.5-FGR-JC1-Rluc2A cells assessed as inhibition of viral RNA replication at 50 uM after 48 hrs by luciferase reporter gene assay relative to control. Format: functional, Hepacivirus hominis. (In general: In a reporter assay the amount or activity of a reporter protein is the signal.)
Series [2] has as its system Hepatitis C virus. Put plainly: Antiviral activity against HCV genotype 1b infected in Huh7/Rep-Feo1b cells assessed as inhibition of viral RNA replication at 50 uM after 48 hrs by luciferase reporter gene assay relative to control. Format: functional, Hepacivirus hominis. Particulars: Huh-7, 48 h.
In series [3] the test system is Hepatitis C virus. In words: Antiviral activity against HCV genotype 2a infected in Huh7.5-FGR-JC1-Rluc2A cells assessed as inhibition of viral RNA replication after 48 hrs by luciferase reporter gene assay. Format: functional, organism-based, Hepacivirus hominis.
Series [4] is described as follows: Cytotoxicity against hamster BHK cells assessed as cell viability at 50 uM after 40 hrs by luciferase reporter gene assay relative to control. As to conditions: read-out: Activity. Format: cell-based, Mesocricetus auratus.
For series [5], the system named is Hepacivirus hominis. In words: Inhibition of recombinant HCV NS5B RNA dependent RNA polymerase activity assessed as reduction in [alpha-32P]UTP incorporation using poly(rA)-U12 as template/primer at 50 uM incubated for 1 hr by liquid scintillation counting method relative to control.
The nature of series [6]: Cytotoxicity against human Huh7.5 cells assessed as reduction in cell viability after 48 hrs by MTS assay. Format: cell-based, Huh-7.
Series [7] is described as follows: Selectivity index, ratio of CC50 for human Huh7.5 cells to EC50 for HCV genotype 2a infected in Huh7.5-FGR-JC1-Rluc2A cells. Further details: species or system Huh-7.
Series [8] has as its system Hepacivirus hominis. Put plainly: Inhibition of HCV NS5B RNA dependent RNA polymerase activity infected in BHK-NS5B-FRLuc cells at 50 uM incubated for 40 hrs by dual luciferase reporter gene assay relative to control. Format: cell-based.
For series [9], the system named is Hepatitis C virus. Put plainly: Antiviral activity against HCV genotype 1b infected in Huh7/Rep-Feo1b cells assessed as inhibition of viral RNA replication after 48 hrs by luciferase reporter gene assay. Format: functional, organism-based, Hepacivirus hominis. As to conditions: Huh-7, 48 h.
A short description of series [10]: Selectivity index, ratio of CC50 for human Huh7.5 cells to EC50 for HCV genotype 1b infected in Huh7/Rep-Feo1b cells. Further details: species or system Huh-7.

Calls of active or inactive are those of the source. The rule behind the calls is not given here.

The term inhibition denotes the drop in the measured response relative to a control, in per cent. In general, EC50 refers to the concentration at which the effect is half-maximal. One may read the CC50 as the concentration at which the toxic effect on the cells reaches its halfway point.

For the molecule `Oc1ccc2c(c1)-c1oc3cc(O)ccc3c1CC2`, the inhibition at 50 µM in the series on Hepatitis C virus [1] stood at 97.8%; in the series with Hepatitis C virus [2], 49.3%. Further, the EC50 in the series on Hepatitis C virus [3] came to 6 µM. The viability at 40 h, 50 µM in series [4] is at least 80%. The inhibition in the series with Hepacivirus hominis [5] was found to be 33.1%; in the series with Hepacivirus hominis [8], 36.1%. Moreover, the CC50 at 48 h in [6] is 157 µM. Moreover, the “Ratio CC50/EC50” value in [7] is recorded as 26.1.
For `Oc1ccc2c3c(oc2c1)-c1cccc(O)c1CC3`, the inhibition at 50 µM in the series on Hepatitis C virus [1] was determined as 99.7%; with Hepatitis C virus [2], 96.7%. In addition, the values for the concentration for a half-maximal effect (EC50) in the series on Hepatitis C virus [3] and in the series with Hepatitis C virus [9] were 2.4 µM and 5.9 µM, respectively. For the same molecule, the viability at 40 h, 50 µM in series [4] was at least 80%. The figures for the inhibition with Hepacivirus hominis [5] and in the series on Hepacivirus hominis [8] were 38% and 33.3%, respectively. Also, in series [6], the CC50 at 48 h came out at 59.5 µM. Also, the results for the “Ratio CC50/EC50” value in [7] and in series [10] were 24.7 and 10.1, respectively.
Turning to `c1ccc2c(c1)CCc1c-2oc2ccccc12`, the inhibition at 50 µM amounted to 86.5% in the series on Hepatitis C virus [1] and 50.7% in the series on Hepatitis C virus [2]. The EC50 in the series on Hepatitis C virus [3] came to 15.3 µM; in the series on Hepatitis C virus [9], 40.7 µM. In addition, the viability at 40 h, 50 µM in [4] was at least 80%. Further, the inhibition result in the series with Hepacivirus hominis [5] and in the series on Hepacivirus hominis [8] was “inactive” throughout. In series [6], the CC50 at 48 h was over 200 µM. For the same molecule, the figures for the “Ratio CC50/EC50” value in [7] and in [10] were over 13 and over 4.9, respectively.
On to `Oc1ccc2c(c1)CCc1c-2oc2cc(O)ccc12`, for which the inhibition at 50 µM is 99.6% with Hepatitis C virus [1] and 98.1% in the series on Hepatitis C virus [2]. Moreover, the EC50 in the series on Hepatitis C virus [3] was 1.9 µM; in the series with Hepatitis C virus [9], 12.3 µM. Also, the viability at 40 h, 50 µM in series [4] was at least 80%. Also, the inhibition result in the series on Hepacivirus hominis [5] and with Hepacivirus hominis [8] was “inactive” throughout. The CC50 at 48 h in series [6] was determined as 84.5 µM. In addition, the entries for the “Ratio CC50/EC50” value in series [7] and in series [10] were 44.4 and 6.8, respectively.
Turning to `Oc1ccc2c3c(oc2c1)-c1cc(O)c(O)cc1CC3`, the inhibition at 50 µM came out at 96.9% with Hepatitis C virus [1] and 98.6% in the series on Hepatitis C virus [2]. Also, the EC50 in the series with Hepatitis C virus [3] came out at 6.1 µM; in the series on Hepatitis C virus [9], 5.5 µM. Besides, in [4], the viability at 40 h, 50 µM is at least 80%. Moreover, the inhibition entry in the series on Hepacivirus hominis [5] and in the series on Hepacivirus hominis [8] was “inactive” each time. In addition, the CC50 at 48 h in series [6] was 115 µM. Also, the “Ratio CC50/EC50” value in series [7] was determined as 18.8; in [10], 20.9.
`Oc1ccc2c(c1)-c1oc3ccccc3c1CC2`: the inhibition at 50 µM in the series on Hepatitis C virus [1] turned out to be 98.4%; with Hepatitis C virus [2] it was 95.1%. The EC50 came out at 2.3 µM in the series on Hepatitis C virus [3] and 27.9 µM in the series on Hepatitis C virus [9]. For the same molecule, in series [4], the viability at 40 h, 50 µM is at least 80%. In addition, the inhibition was 38.5% with Hepacivirus hominis [5] and 39.4% in the series on Hepacivirus hominis [8]. Further, in [6], the CC50 at 48 h amounted to 96.8 µM. Also, the “Ratio CC50/EC50” value is 42.1 in series [7] and 3.5 in [10].
Consider `COc1ccc2c(c1)CCc1c-2oc2cc(O)ccc12`, for which the inhibition at 50 µM in the series on Hepatitis C virus [1] is 99.8%; in the series with Hepatitis C virus [2], 97.9%. For the same molecule, the EC50 in the series with Hepatitis C virus [3] was 1.5 µM; in the series with Hepatitis C virus [9] it was 19.9 µM. For the same molecule, the viability at 40 h, 50 µM in series [4] was at least 80%. Moreover, the inhibition came to 36.2% with Hepacivirus hominis [5] and 37% with Hepacivirus hominis [8]. Moreover, in [6], the CC50 at 48 h is 106 µM. In addition, the “Ratio CC50/EC50” value in series [7] is listed as 70.6; in series [10] it was 5.3.
`Oc1ccc2c3c(oc2c1)-c1ccccc1CC3`: the inhibition at 50 µM was 97.2% in the series on Hepatitis C virus [1] and 90.1% with Hepatitis C virus [2]. In addition, the EC50 was 5.7 µM with Hepatitis C virus [3] and 13.9 µM with Hepatitis C virus [9]. Further, the viability at 40 h, 50 µM in series [4] is at least 80%. In addition, the inhibition entry with Hepacivirus hominis [5] and in the series on Hepacivirus hominis [8] was “inactive” throughout. The CC50 at 48 h in series [6] stood at 99.9 µM. Moreover, the entries for the “Ratio CC50/EC50” value in [7] and in series [10] were 15.8 and 7.2, respectively.
